Measured values: ChEMBL document CHEMBL3751755, “Developing steroidal aromatase inhibitors-an effective armament to win the battle against breast cancer” (Eur J Med Chem, 2015)

What was measured:
[1] = biological target: T1, Aromatase (Homo sapiens, UniProt P11511); experiment: Inhibition of human aromatase extracted from placental microsomes using [1beta-3H]androstenedione as substrate after 20 mins by radiometric assay
T1 sequence (P11511 whole entry): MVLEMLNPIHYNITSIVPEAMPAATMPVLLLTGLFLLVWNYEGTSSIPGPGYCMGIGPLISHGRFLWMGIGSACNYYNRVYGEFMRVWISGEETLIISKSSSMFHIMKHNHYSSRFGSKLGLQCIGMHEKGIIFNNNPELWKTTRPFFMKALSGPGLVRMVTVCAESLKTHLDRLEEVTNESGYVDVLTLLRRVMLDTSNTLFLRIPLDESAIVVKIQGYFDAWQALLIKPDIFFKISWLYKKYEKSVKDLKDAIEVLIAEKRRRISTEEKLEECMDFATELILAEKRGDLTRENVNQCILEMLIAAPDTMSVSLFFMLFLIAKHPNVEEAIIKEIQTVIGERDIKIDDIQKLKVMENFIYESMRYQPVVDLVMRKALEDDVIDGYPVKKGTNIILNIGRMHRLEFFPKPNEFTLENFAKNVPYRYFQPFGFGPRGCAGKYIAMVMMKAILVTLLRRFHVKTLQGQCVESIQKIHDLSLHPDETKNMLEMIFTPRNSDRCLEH

[2] = biological target: T1, Aromatase
[3] = biological target: T1, Aromatase; remark: listed apart in the source
[4] = biological target: T1, Aromatase; experiment: Inhibition of human aromatase extracted from placental microsomes using 4-[14C]androstenedione as substrate at 0.25 to 1.25 uM after 15 mins
[5] = biological target: T1, Aromatase; experiment: Inhibition of human aromatase extracted from placental microsomes using [1beta-3H]AD as substrate by radiometric assay
[6] = biological target: T1, Aromatase; experiment: Competitive inhibition of human aromatase extracted from placental microsomes by Dixon plot analysis in presence of [1beta-3H]AD; conditions: read-out: Ki
[7] = biological target: T1, Aromatase; experiment: Competitive inhibition of human aromatase extracted from placental microsomes by Dixon plot analysis in presence of [1beta-3H]androstenedione; conditions: read-out: Ki
[8] = biological target: T1, Aromatase; experiment: Inhibition of human aromatase extracted from placental microsomes using [1,2-3H]androstenedione as substrate after 30 mins by scintillation counting analysis
[9] = biological target: T1, Aromatase; experiment: Competitive inhibition of human aromatase extracted from placental microsomes by Lineweaver- Burk plots analysis in presence of 4-androstene-3,17-dione
[10] = biological target: T1, Aromatase; experiment: Competitive inhibition of human aromatase extracted from placental microsomes by double reciprocal plot analysis in presence of 4-androstene-3,17-dione; conditions: read-out: Ki(app)
[11] = biological target: T2, Aromatase (Rattus norvegicus, UniProt P22443); experiment: Inhibition of aromatase in denucleated ovarian fraction extracted from PMSG pretreated Wistar rat by using testosterone as substrate at 1 uM
T2 sequence (P22443 whole entry): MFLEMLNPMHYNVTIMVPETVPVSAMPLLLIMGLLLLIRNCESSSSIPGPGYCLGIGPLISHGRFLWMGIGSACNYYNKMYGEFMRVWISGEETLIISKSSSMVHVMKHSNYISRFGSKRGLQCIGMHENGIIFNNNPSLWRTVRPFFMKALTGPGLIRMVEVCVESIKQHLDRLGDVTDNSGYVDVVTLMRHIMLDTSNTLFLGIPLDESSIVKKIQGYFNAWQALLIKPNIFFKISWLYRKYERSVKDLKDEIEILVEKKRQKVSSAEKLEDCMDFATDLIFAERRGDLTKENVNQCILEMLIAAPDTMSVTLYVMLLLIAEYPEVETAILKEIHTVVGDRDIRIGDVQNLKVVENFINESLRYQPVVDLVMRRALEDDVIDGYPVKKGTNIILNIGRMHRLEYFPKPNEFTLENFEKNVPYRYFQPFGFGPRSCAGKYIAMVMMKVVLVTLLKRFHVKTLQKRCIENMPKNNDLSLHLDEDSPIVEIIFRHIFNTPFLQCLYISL

[12] = biological target: T1, Aromatase; experiment: Time dependent inactivation of human aromatase extracted from placental microsomes using [1-3H]androstenedione as substrate
[13] = biological target: T1, Aromatase; experiment: Inhibition of human aromatase after 30 mins by fluorescence assay

## CC1=C[C@@]2(C)C(=CC1=O)[C@@H](Br)C[C@@H]1[C@@H]2CC[C@]2(C)C(=O)CC[C@@H]12
[1]
  IC50: 0.71 µM
[2]
  Ki: 0.081 µM

## C[C@]12CC[C@H]3[C@@H](CCC4=CC(=O)CC[C@@]43[C@@H]3CS3)[C@@H]1CCC2=O
[3]
  Ki: 0.002 µM

## C[C@]12CC[C@H]3[C@@H](CCC4=CC(=O)CC[C@@]43N)[C@@H]1CCC2=O
[4]
  INH: < 20%

## CC1(C)C[C@@]2(C)C(=CC1=O)CC[C@@H]1[C@@H]2CC[C@]2(C)C(=O)CC[C@@H]12
[5]
  IC50: 0.089 µM
[6]
  Ki: 0.0088 µM

## C[C@H]1C[C@@]2(C)C(=CC1=O)CC[C@@H]1[C@@H]2CC[C@]2(C)C(=O)CC[C@@H]12
[5]
  IC50: 0.25 µM
[6]
  Ki: 0.022 µM

## C[C@]12CCCC=C1C(=O)C[C@@H]1[C@@H]2CC[C@]2(C)C(=O)CC[C@@H]12
[1]
  IC50: 1.7 µM
[7]
  Ki: 0.61 µM

## CC1=C[C@@]2(C)C(=CC1=O)CC[C@@H]1[C@@H]2CC[C@]2(C)C(=O)CC[C@@H]12
[1]
  IC50: 0.58 µM
[2]
  Ki: 0.046 µM

## C[C@]12CC[C@H](OC=O)C=C1C(=O)C[C@@H]1[C@@H]2CC[C@]2(C)C(=O)CC[C@@H]12
[1]
  IC50: 1.7 µM
[7]
  Ki: 16 µM

## C[C@@H]1C[C@@]2(C)C(=CC1=O)CC[C@@H]1[C@@H]2CC[C@]2(C)C(=O)CC[C@@H]12
[5]
  IC50: 0.69 µM
[6]
  Ki: 0.055 µM

## C[C@]12CCC(=O)C(Sc3ccccc3)=C1CC[C@@H]1[C@@H]2CC[C@]2(C)C(=O)CC[C@@H]12
[8]
  IC50: 0.19 µM

## COC(=O)N[C@]12CCC(=O)C=C1CC[C@H]1[C@@H]3CCC(=O)[C@@]3(C)CC[C@@H]12
[4]
  INH: < 20%

## C[C@]12CCC(=O)C=C1C[C@@H](Sc1ccc(Nc3ccc([N+](=O)[O-])cc3[N+](=O)[O-])cc1)[C@@H]1[C@@H]2CC[C@]2(C)C(=O)CC[C@@H]12
[9]
  Ki: 0.0241 µM

## C[C@]12C=CC(=O)C=C1C[C@@H](Sc1ccc(Br)cc1)[C@@H]1[C@@H]2CC[C@]2(C)C(=O)CC[C@@H]12
[10]
  Ki: 0.012 µM

## C[C@]12CC[C@H]3[C@@H](CCC4=C(O)C(=O)CC[C@@]43C)[C@@H]1CC(=O)OC2
[11]
  inhibition at 1 µM: 34.8%

## CC(=O)NC[C@]12CCC(=O)C=C1CC[C@@H]1[C@@H]2CC[C@]2(C)C(=O)CC[C@@H]12
[4]
  INH: < 20%

## C[C@]12CCC(=O)C=C1C[C@@H](Sc1cccc3ccccc13)[C@@H]1[C@@H]2CC[C@]2(C)C(=O)CC[C@@H]12
[9]
  Ki: 0.0241 µM

## C[C@]12C=CC(=O)C=C1CC[C@@H]1[C@@H]2CC[C@]2(C)C(=O)OC[C@@H]12
[3]
  Ki: 0.26 µM

## C[C@]12CC[C@H]3[C@@H](CCC4=CC(=O)CC[C@@]43/C=N/O)[C@@H]1CCC2=O
[4]
  INH: < 20%

## C[C@]12CC[C@H]3[C@@H](CCC4=CC(=O)[C@H]5C[C@@H](O)[C@]43C5)[C@@H]1CCC2=O
[12]
  Ki: 0.87 µM

## C[C@]12CC[C@H]3[C@@H](CCC4=CC(=O)[C@H]5C[C@H](O)[C@]43C5)[C@@H]1CCC2=O
[12]
  Ki: 0.926 µM

## C[C@@]12CCC[C@H]1[C@@H]1CCC3=CC(=O)C=C[C@]3(C)[C@H]1CC2
[3]
  Ki: 0.26 µM

## CN1N=C2[C@H](C[C@H]3[C@@H]4CCC5=CC(=O)C=C[C@]5(C)[C@H]4CC[C@]23C)[C@H]1c1ccccc1
[13]
  IC50: 1.82 µM

## CN(C)c1cccc2c(S(=O)(=O)Nc3ccc(S[C@@H]4CC5=CC(=O)CC[C@]5(C)[C@H]5CC[C@]6(C)C(=O)CC[C@H]6[C@H]45)cc3)cccc12
[9]
  Ki: 0.0241 µM

## C[C@]12CC[C@H]3[C@@H](CCC4=CC(=O)CC[C@@]43CNC(=O)C(F)(F)F)[C@@H]1CCC2=O
[4]
  INH: < 20%
